According to patent US12655116B2, “Substituted isophthalic acid diamides” (Bayer Aktiengesellschaft, priority 2020, dated 2026):

Tests used:
ABUTH [1] = test: Pre-emergence herbicidal action against ABUTH; format: in vivo, Abutilon theophrasti
Summary of the method: (§1)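 Sandy loam pots, seeds covered with soil, then surface-treated with WP or EC formulations at 600–800 l/ha water plus 0.2% wetting agent. Greenhouse, 3 weeks. Percent damage vs untreated controls.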

MATIN [2] = test: Pre-emergence herbicidal action against MATIN; format: in vivo, Matricaria inodora
Summary of the method: as §1

VERPE [3] = test: Post-emergence herbicidal action against VERPE; format: in vivo, Veronica persica; conditions: Veronica persica, 504 h
Summary of the method: (§2)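 Visual % rating (0% = as untreated, 100% = dead) ~3 wk after spraying one-leaf-stage plants grown in sandy loam; WP/EC in water at 600–800 l/ha, 0.2% wetting agent.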

ECHCG [4] = test: Pre-emergence herbicidal action against ECHCG; format: in vivo, Echinochloa crus-galli
Summary of the method: as §1

PHBPU [5] = test: Pre-emergence herbicidal action against PHBPU; format: in vivo, Pharbitis purpurea; conditions: Ipomoea purpurea, 504 h
Summary of the method: as §1

MATIN [6] = test: Post-emergence herbicidal action against MATIN; format: in vivo, Matricaria inodora; conditions: Tripleurospermum inodorum, 504 h
Summary of the method: as §2

SETVI [7] = test: Pre-emergence herbicidal action against SETVI; format: in vivo, Setaria viridis
Summary of the method: as §1

AMARE [8] = test: Post-emergence herbicidal action against AMARE; format: in vivo, Amaranthus retroflexus; conditions: 20 g/ha, visual assessment about 3 weeks after treatment, 100% = plants have died, 0% = like control plants
Summary of the method: as §2

DIGSA [9] = test: Pre-emergence herbicidal action against DIGSA; format: in vivo, Digitaria sanguinalis
Summary of the method: as §1

VIOTR [10] = test: Pre-emergence herbicidal action against VIOTR; format: in vivo, Viola tricolor
Summary of the method: as §1

VIOTR [11] = test: Post-emergence herbicidal action against VIOTR; format: in vivo, Viola tricolor; conditions: Viola tricolor, 504 h
Summary of the method: as §2

AVEFA = test: Pre-emergence herbicidal action against AVEFA; format: in vivo, Avena fatua; conditions: Avena fatua, 504 h; 80 g/ha, pre-emergence
Summary of the method: as §1

AMARE [12] = test: Pre-emergence herbicidal action against AMARE; format: in vivo, Amaranthus retroflexus
Summary of the method: as §1

DIGSA [13] = test: Post-emergence herbicidal action against DIGSA; format: in vivo, Digitaria sanguinalis; conditions: Digitaria sanguinalis, 504 h
Summary of the method: as §2

ABUTH [14] = test: Post-emergence herbicidal action against ABUTH; format: in vivo, Abutilon theophrasti; conditions: visual assessment about 3 weeks after treatment vs untreated controls
Summary of the method: as §2

ALOMY [15] = test: Post-emergence herbicidal action against ALOMY; format: in vivo, Alopecurus myosuroides; conditions: Alopecurus myosuroides, 504 h, dosage 20 g/ha, visual assessment about 3 weeks after treatment vs untreated controls
Summary of the method: as §2

SETVI [16] = test: Post-emergence herbicidal action against SETVI; format: in vivo, Setaria viridis
Summary of the method: as §2

ALOMY [17] = test: Pre-emergence herbicidal action against ALOMY; format: in vivo, Alopecurus myosuroides; conditions: Alopecurus myosuroides, 504 h; 80 g/ha, pre-emergence, scored visually after 3 weeks vs untreated controls (100% = plants have died, 0% = like control plants)
Summary of the method: as §1

PHBPU [18] = test: Post-emergence herbicidal action against PHBPU; format: in vivo, Pharbitis purpurea; conditions: dosage 20 g/ha
Summary of the method: as §2

ECHCG [19] = test: Post-emergence herbicidal action against ECHCG; format: in vivo, Echinochloa crus-galli
Summary of the method: as §2

VERPE [20] = test: Pre-emergence herbicidal action against VERPE; format: in vivo, Veronica persica; conditions: dosage 80 g/ha
Summary of the method: as §1

POLCO = test: Pre-emergence herbicidal action against POLCO; format: in vivo, Polygonum convolvulus
Source text: Seeds of monocotyledonous and dicotyledonous weed plants and crop plants are laid out in sandy loam soil in wood-fiber pots and covered with soil. The compounds of the invention, formulated in the form of wettable powders (WP) or as emulsion concentrates (EC), are then applied to the surface of the covering soil in the form of an aqueous suspension or emulsion at a water application rate equivalent to 600 to 800 l/ha, with addition of 0.2% wetting agent. After the treatment, the pots are placed in a greenhouse and kept under good growth conditions for the trial plants. The damage to the test plants is scored visually after a test period of 3 weeks by comparison with untreated controls (herbicidal activity in percent (%): 100% activity=the plants have died, 0% activity=like control plants). […] The tables below illustrate, in an illustrative manner, the post-emergence herbicidal action of the compounds of the invention, the herbicidal activity being stated in percent.

[21] = Setaria viridis, 504 h, dosage 20 g/ha
[22] = 80 g/ha, scored visually after 3 weeks vs untreated controls (100% = plants have died, 0% = like control plants)
[23] = 20 g/ha, scored visually after 3 weeks vs untreated controls, 100% = plants have died, 0% = like control plants

CCNC(=O)c1c(C(F)(F)F)ccc(C(=O)Nc2nnnn2C)c1OC [Example 1-57]
pest or weed control at 80 g/ha (ABUTH [1]; Abutilon theophrasti, 504 h, 80 g/ha, scored visually after 3 weeks vs untreated controls (100% = plants have died, 0% = like control plants)): 100%
pest or weed control at 20 g/ha (ABUTH [1]; Abutilon theophrasti, 504 h, dosage 20 g/ha, scored visually after 3 weeks vs untreated controls, 100% = plants have died, 0% = like control plants, read-out: Pre-emergence action against ABUTH (herbicidal activity in percent)): 100%
pest or weed control at 20 g/ha (MATIN [2]; Tripleurospermum inodorum, 504 h, dosage 20 g/ha): 90%
pest or weed control at 80 g/ha (MATIN [2]; Tripleurospermum inodorum, 504 h, dosage 80 g/ha): 100%
pest or weed control at 5 g/ha (VERPE [3]; 5 g/ha): 80%
pest or weed control at 20 g/ha (VERPE [3]; 20 g/ha): 90%
pest or weed control at 20 g/ha (ECHCG [4]; Echinochloa crus-galli, 504 h, 20 g/ha): 90%
pest or weed control at 80 g/ha (ECHCG [4]; Echinochloa crus-galli, 504 h, 80 g/ha): 90%
pest or weed control at 20 g/ha (PHBPU [5]; dosage 20 g/ha): 80%
pest or weed control at 80 g/ha (PHBPU [5]; dosage 80 g/ha): 80%
pest or weed control at 5 g/ha (MATIN [6]; dosage 5 g/ha): 80%
pest or weed control at 20 g/ha (MATIN [6]; dosage 20 g/ha): 90%
pest or weed control at 20 g/ha (SETVI [7]; [21]): 90%
pest or weed control at 80 g/ha (SETVI [7]; Setaria viridis, 504 h, dosage 80 g/ha): 100%
pest or weed control at 20 g/ha (AMARE [8]; Amaranthus retroflexus, 504 h): 100%
pest or weed control at 20 g/ha (DIGSA [9]; Digitaria sanguinalis, 504 h, dosage 20 g/ha): 100%
pest or weed control at 80 g/ha (DIGSA [9]; Digitaria sanguinalis, 504 h, dosage 80 g/ha): 100%
pest or weed control at 20 g/ha (VIOTR [10]; Viola tricolor, 504 h, dosage 20 g/ha): 100%
pest or weed control at 80 g/ha (VIOTR [10]; Viola tricolor, 504 h, dosage 80 g/ha): 100%
pest or weed control at 5 g/ha (VIOTR [11]; 5 g/ha): 100%
pest or weed control at 20 g/ha (VIOTR [11]; 20 g/ha): 100%
pest or weed control at 80 g/ha (AVEFA): 90%
pest or weed control at 20 g/ha (AMARE [12]; Amaranthus retroflexus, 504 h, 20 g/ha, scored visually after 3 weeks vs untreated controls, 100% = plants have died, 0% = like control plants): 100%
pest or weed control at 80 g/ha (AMARE [12]; Amaranthus retroflexus, 504 h, 80 g/ha, scored visually after 3 weeks vs untreated controls, 100% = plants have died, 0% = like control plants): 100%
pest or weed control at 5 g/ha (DIGSA [13]; 5 g/ha): 100%
pest or weed control at 20 g/ha (DIGSA [13]; 20 g/ha): 100%
pest or weed control at 5 g/ha (ABUTH [14]; Abutilon theophrasti, 504 h, dosage 5 g/ha): 90%
pest or weed control at 20 g/ha (ABUTH [14]; Abutilon theophrasti, 504 h, dosage 20 g/ha): 90%
pest or weed control at 20 g/ha (ALOMY [15]): 80%
pest or weed control at 5 g/ha (SETVI [16]; Setaria viridis, 504 h, dosage 5 g/ha): 100%
pest or weed control at 20 g/ha (SETVI [16]; [21]): 100%
pest or weed control at 80 g/ha (ALOMY [17]): 80%
pest or weed control at 20 g/ha (PHBPU [18]; Ipomoea purpurea, 504 h): 90%
pest or weed control at 5 g/ha (ECHCG [19]; Echinochloa crus-galli, 504 h, dosage 5 g/ha): 80%
pest or weed control at 20 g/ha (ECHCG [19]; Echinochloa crus-galli, 504 h, dosage 20 g/ha): 100%
pest or weed control at 80 g/ha (VERPE [20]; Veronica persica, 504 h): 80%

Cc1nnc(NC(=O)c2ccc(C(F)F)c(C(=O)NC3CC3)c2Br)o1 [Example 6-166]
Pre-emergence action against ABUTH (herbicidal activity) (ABUTH [1]; [22]): 100%
Pre-emergence action against MATIN in % (MATIN [2]; dosage 80 g/ha): 100%
Pre-emergence action against ECHCG in % (ECHCG [4]; 80 g/ha): 80%
Pre-emergence action against SETVI in % (SETVI [7]; dosage 80 g/ha): 100%
Post-emergence action at 20 g/ha against AMARE in % (AMARE [8]): 90%
Pre-emergence action against DIGSA in % (DIGSA [9]; dosage 20 g/ha): 80%
Pre-emergence action against DIGSA in % (DIGSA [9]; dosage 80 g/ha): 100%
Pre-emergence action against VIOTR in % (VIOTR [10]; dosage 80 g/ha): 100%
Pre-emergence action against AMARE in % (AMARE [12]; [23]): 90%
Pre-emergence action against AMARE in % (AMARE [12]; [22]): 100%
Post-emergence action against ABUTH in % (ABUTH [14]; dosage 20 g/ha): 80%
Post-emergence action against SETVI in % (SETVI [16]; dosage 20 g/ha): 100%
Post-emergence action against ECHCG in % (ECHCG [19]; dosage 5 g/ha): 80%
Post-emergence action against ECHCG in % (ECHCG [19]; dosage 20 g/ha): 90%
Pre-emergence action against POLCO in % (POLCO; dosage 80 g/ha): 80%

CCn1nnnc1NC(=O)c1ccc(C(F)(F)F)c(C(=O)NCc2cccs2)c1Cl [Example 2-144]
Pre-emergence action against MATIN in % (MATIN [2]; dosage 80 g/ha): 90%
Pre-emergence action against ECHCG in % (ECHCG [4]; 80 g/ha): 80%
Pre-emergence action against DIGSA in % (DIGSA [9]; dosage 80 g/ha): 100%
Pre-emergence action against VIOTR in % (VIOTR [10]; dosage 80 g/ha): 90%
Pre-emergence action against AMARE in % (AMARE [12]; [23]): 80%
Pre-emergence action against AMARE in % (AMARE [12]; [22]): 100%
Post-emergence action against PHBPU in % (PHBPU [18]): 80%
Pre-emergence action against VERPE in % (VERPE [20]): 100%
Pre-emergence action against POLCO in % (POLCO; dosage 20 g/ha): 80%
Pre-emergence action against POLCO in % (POLCO; dosage 80 g/ha): 90%

CCn1nnnc1NC(=O)c1ccc(C(F)(F)F)c(C(=O)NCCSC)c1C [Example 2-35]
Pre-emergence action against MATIN in % (MATIN [2]; dosage 80 g/ha): 80%
Pre-emergence action against AMARE in % (AMARE [12]; [22]): 90%
Pre-emergence action against POLCO in % (POLCO; dosage 80 g/ha): 80%
